Reference: US9119806B2, “Culturing circular ssDNA viruses for the production of vaccines” (priority 2007, dated 2015)

B1: IL-6: Porcine interleukin 6 (R&D systems) (protein, UniProt P26893 30-212, looked up)
Interleukin-6: ERLEEDAKGDATSDKMLFTSPDKTEELIKYILGKISAMRKEMCEKYEKCENSKEVLAENNLNLPKMAEKDGCFQSGFNQETCLMRITTGLVEFQIYLDYLQKEYESNKGNVEAVQISTKALIQTLRQKGKNPDKATTPNPTTNAGLLDKLQSQNEWMKNTKIILILRSLEDFLQFSLRAIRIM
B2: IL-10: Porcine interleukin 10 (R&D systems) (protein, UniProt Q29055 19-175, looked up)
Interleukin-10: SIKSENSCIHFPTSLPHMLRELRAAFGPVKSFFQTKDQMGDLLLTGSLLEDFKGYLGCQALSEMIQFYLEDVMPKAESDGEDIKEHVNSLGEKLKTLRLRLRRCHQFLPCENKSKAVEEVKSAFSKLQERGVYKAMGEFDIFINYIEAYMTMKMRKN

How the values were obtained:
[1] = tested on: PCV2 strain Stoon-1010 in PK-15 cells; assay: Progeny PCV2 production in PK-15 cells with acidification inhibitors and/or IFN-gamma; assay type: cell-based, Porcine circovirus 2
Experimental: For progeny virus production assays, 2×10^5 cells were seeded in every well of 24-well cell culture plates. Cells were pre-treated with or without 500 U/ml IFN-gamma at 6 hours post seeding. At 24 h post-seeding, cells were washed and inoculated with the prototype PCV2 strain Stoon-1010 at an m.o.i. of 0.3 for 1 hour at 37° C. The viral inoculum was washed-off and cells were further incubated in 1 ml of culture medium with or without 25 mM ammonium chloride, 125 μM chloroquine diphosphate and/or 6 μM monensin for 24 hours. Then, the culture medium with or without endosomal-lysosomal system acidification inhibitors was replaced with fresh culture medium without inhibitors. At 1, 24, 48 and 72 hours post-inoculation the supernatant was collected. Subsequently the culture was washed once with 1 ml PBS. Both the supernatant and the washing fluid were centrifuged for 10 minutes at 15,000×g to pellet cells and debris. The centrifuged supernatant and washing fluids were combined and considered to contain the extracellular virus. Both pellets and cell cultures were freeze-thawed three times and considered to contain the intracellular virus. Intra- and extracellular virus titres were determined by titration on PCV-negative PK-15 cells as described previously. Viral antigens were detected using an IPMA as described above and PCV2 titre was expressed as log10 TCID50 per 10^5 cells.

[2] = tested on: PCV2 infection of PK-15 cells; assay: Number of PCV2-infected PK-15 cells (IPMA) with endosomal-lysosomal acidification inhibitors with or without IFN-gamma; assay type: cell-based, Porcine circovirus 2; conditions: for effect on PCV2 infection in IFN-gamma treated cells (in words): PK-15 pre-treated with 500 U/ml IFN-gamma 24 hours; for effect on PCV2 infection in IFN-gamma treated cells (in words) / effect on PCV2 infection compared to control (in words): inhibitor 24 hours after inoculation, 36 hpi; for effect on PCV2 infection compared to control (in words): PK-15 without IFN-gamma; for highest concentration exerting maximal effect without affecting cell viability (chosen): two-fold dilution in PK-15 cells, Stoon-1010
Experimental: Endosomal-lysosomal system acidification was inhibited using lysosomotropic weak bases (ammonium chloride and chloroquine diphosphate) and carboxylic ionophore monensin. All chemical compounds were purchased from Sigma. In a first set of experiments, a two-fold dilution of each inhibitor in PK-15 cells using Stoon-1010 was performed to determine the highest concentration of each inhibitor that exerted the maximal effect without affecting cell viability. Finally, 25 mM ammonium chloride, 125 μM chloroquine diphosphate and 6 μM monensin were chosen. PK-15 cells were cultivated for 24 hours and then inoculated with a dose of PCV2 for 1 hour at 37° C. The viral inoculum was washed-off and cells were further incubated in culture medium with or without inhibitors of endosomal-lysosomal acidification for 24 hours. Then, the culture medium containing endosomal-lysosomal system inhibitors was replaced with fresh culture medium without inhibitors. After the first cycle of PCV2 replication, at 36 hpi, cells were fixed with methanol at −20° C. for 10 minutes. Cells were stored at −20° C. until they were stained using an immunoperoxidase monolayer assay (IPMA) as described by Sanchez et al. (2003, Vet Microbiol 95, 15-25).
PK-15 cells were pre-treated with or without 500 U/ml IFN-gamma for 24 hours before they were inoculated with the same dose of PCV2 for 1 hour at 37° C. The viral inoculum was washed-off and cells were further incubated in culture medium containing inhibitors of endosomal-lysosomal acidification for 24 hours. Then, the culture medium containing endosomal-lysosomal system inhibitors was replaced with fresh culture medium without inhibitors. After the first cycle of PCV2 replication, at 36 hours post-inoculation cells were fixed with methanol at −20° C. for 10 minutes. Cells were stored at −20° C. until they were stained using an immunoperoxidase monolayer assay (IPMA) as described above. The number of infected cells per well in mock-treated cells inoculated with an equal dose of PCV2 as treated cells was used as the referent, and all results are expressed as a percentage of this referent. All experiments were performed three times, and each condition in a single experiment was performed in duplicate.

[3] = tested on: PCV2 (field strain Imp-1121); assay: PCV2 replication in inoculated pigs given IFN-gamma or ConA; assay type: in vivo; conditions: pigs inoculated at 19 days of age; samples 10, 15, 21 days post inoculation
Experimental: Pigs are inoculated with PCV2 (field strain Imp-1121) at 19 days of age. These inoculated pigs are divided in 3 groups. One group contains control pigs (only PCV2). The second group of pigs receives recombinant IFN-gamma (100,000 U per pig every three days). The third group contains pigs that receive ConA (1.5 mg/kg every three days). At different times post inoculation (10, 15, 21 days) samples are collected and the replication of the virus is assessed.

[4] = tested on: PCV2-infected 3D4/31 cells; assay: Number of PCV2-infected 3D4/31 cells (IPMA) after cytokine treatment; assay type: cell-based, Porcine circovirus 2; conditions: 3D4/31 cells; any concentration, before, during or after inoculation
From the text: (§1) In order to use cells, more related to the target cells in vivo, the monocytic cell line 3D4/31 was used to confirm the effect of the different cytokines on the number of PCV2-infected cells. The 3D4/31 cell line is a porcine monomyeloid cell lines that was established following transfection of primary porcine alveolar macrophage cultures with plasmid pSV3neo, carrying genes for neomycin resistance and SV40 large T antigen. (Weingartl et al. (2002) J Virol Methods. 10, 203-216). These cells were maintained in a 1:1 mixture of RPMI-1640 (Invitrogen) and DMEM (Invitrogen) supplemented with 10% fetal bovine serum, 0.3 mg/ml glutamine, 100 U/ml penicillin, 0.1 mg/ml streptomycin, 0.1 mg/ml kanamycin and 1% non-essential amino acids 100× (GIBCO BRL®, Grand Island, USA). These experiments were also performed in 96-well plates containing the same number of cells. Furthermore, to monitor the effect of IFN-gamma on the entry of PCV2 virion-like particles was determined, 3D4/31 cells were seeded at 2×10^5 cells/ml of medium onto microscopic slides mounted with an 8 well cell culture silicone chamber (Vivascience AG, Hanover). In all inoculations, the same PCV2-strain (Stoon-1010) was used at a multiplicity of infection of 0.01. The virus was diluted in MEM and inoculated on the cell cultures by incubating cells and virus for 1 hour at 37° C. After 1 hour, the inoculum was removed, the cultures were washed twice with MEM and new culture medium was added.
(§2) The influence of the cytokines on the infection of PCV2 in PK-15 and 3D4/31 cells was determined by adding two-fold-dilution series of the cytokines to the medium of the cells before, during or after the inoculation. IL-1, IL-6, […] and IFN-alpha were used in concentrations ranging from 0.25-250 Units/ml (U/ml), IFN-gamma was used in concentrations ranging from 0.25-1000 U/ml and IL-10 was used in concentrations from 0.13-125 U/ml. Cell cultures were either pre-treated with the cytokines for 24 hours before inoculation, treated during the inoculation or the cytokines were added in the medium after the inoculation. After 36 hours of incubation at 37° C. in an environment supplemented with 5% CO2, the cells were fixed by drying and frozen at −20° C. The plates were stained with an immuno-peroxydase monolayer assay (IPMA) as described by Sanchez et al. (2003, Vet Microbiol 95, 15-25) and the number of PCV2-positive cells was counted by light microscopy. In each plate a control was inoculated with an equal dose of mock-treated PCV2 (treated with MEM without cytokines). The number of infected cells in this well was used as the reference and all results were expressed as a ratio to this reference.

[5] = tested on: PCV2-infected PK-15 cells; assay: Number of PCV2-infected PK-15 cells (IPMA) after treatment with cytokines or natural cytokine sources; assay type: cell-based, Porcine circovirus 2; conditions: PK-15 cells; cytokine dilution series, before, during or after inoculation; 36 h
Experimental: PK-15 cells were seeded and maintained in culture medium containing 5%-10% fetal bovine serum (FBS), 0.3 mg/ml glutamine, 100 U/ml penicillin, 0.1 mg/ml streptomycin, 0.1 mg/ml kanamycin dissolved in minimal essential medium (MEM) (Gibco BRL®, Grand Island, USA) or dissolved in RPMI-1640 (GIBCO BRL®, Grand Island, USA) containing 1% nonessential amino acids (100×; GIBCO BRL®, Grand Island, USA) and 1 mM sodium pyruvate (GIBCO BRL®, Grand Island, USA). Cells were seeded at a concentration of 150,000 cells per ml of medium. For the detection of total viral antigen positive cells, the cells were seeded in 96-well microtiter plates (Nunc) (15,000-20,000 cells per well). To detect the expression of specific viral antigens, cells were seeded on sterile cover slips in Leighton tubes (150,000 cells per tube) and finally progeny virus production assays were performed in 24-well plates containing […].
as §1, §2
Two-fold dilutions of the BAL-fluids of the PRCV and mock-inoculated pigs were added to the medium of PCV2-inoculated PK-15 cells after inoculation. Concentrations of the added BAL-fluids ranged from 1.25 to 5%. Supernatants of ConA and mock-stimulated PBMC's were also added to the culture medium of PK-15 cells after inoculation in concentrations ranging from […] to 50%. […]

[6] = IFN-gamma 500 U/ml pre-treatment

Row | Molecule | PCV2 titres at 1 hpi ([1]; IFN-gamma 0 U/ml) [TCID50 per 10^5 cells] | PCV2 titres at 24 hpi ([1]; IFN-gamma 0 U/ml) [TCID50 per 10^5 cells] | PCV2 titres at 48 hpi ([1]; IFN-gamma 0 U/ml) [TCID50 per 10^5 cells] | PCV2 titres at 72 hpi ([1]; IFN-gamma 0 U/ml) [TCID50 per 10^5 cells] | PCV2 titres at 1 hpi [1, 6] [TCID50 per 10^5 cells] | PCV2 titres at 24 hpi [1, 6] [TCID50 per 10^5 cells] | PCV2 titres at 48 hpi [1, 6] [TCID50 per 10^5 cells] | PCV2 titres at 72 hpi [1, 6] [TCID50 per 10^5 cells] | effect on PCV2 infection in IFN-gamma treated cells (in words) [2] | effect on PCV2 infection compared to control (in words) [2] | highest concentration exerting maximal effect without affecting cell viability (chosen) [2] [µM] | replication of PCV2 compared to control pigs (in words) [3] | change in the number of PCV2-positive cells (in words) [4] | change in the number of PCV2-positive cells (in words) [5]
1 | CC[C@@]1([C@@H]2O[C@@H]([C@H]3O[C@@](O)(CO)[C@H](C)C[C@@H]3C)C[C@@H]2C)CC[C@H]([C@]2(C)CC[C@]3(C[C@H](O)[C@@H](C)[C@@H]([C@@H](C)[C@@H](OC)[C@H](C)C(=O)O)O3)O2)O1 [Monensin, monensin] | 1.9 | 2.3 | 3.9 | 3.6 | 2.0 | 2.8 | 4.6 | 4.8 | enhanced PCV2 infection | enhance PCV2 infection | 6 |  |  | 
2 | concanavalin A [ConA] |  |  |  |  |  |  |  |  |  |  |  | increase in the replication of PCV2 |  | 
3 | Cl.N [Ammonium chloride, ammonium chloride] | 2.1 | 1.9 | 3.0 | 3.8 | 1.6 | 3.0 | 4.0 | 4.8 | enhanced PCV2 infection | enhance PCV2 infection | 25000 |  |  | 
4 | CCN(CC)CCCC(C)Nc1ccnc2cc(Cl)ccc12 (stereo not shown) [Chloroquine diphosphate, chloroquine diphosphate] | 1.4 | 1.8 | 3.3 | 4.3 | 1.6 | 2.3 | 4.0 | 4.6 | enhanced PCV2 infection | enhance PCV2 infection | 125 |  |  | 
5 | TNF-alpha |  |  |  |  |  |  |  |  |  |  |  |  | did not induce a significant change | no significant change
6 | B1 |  |  |  |  |  |  |  |  |  |  |  |  | did not induce a significant change | no significant change
7 | B2 |  |  |  |  |  |  |  |  |  |  |  |  | did not induce a significant change | no significant change
